This is an account of results in US20260176320A1, “MODULATORS OF G-PROTEIN COUPLED RECEPTORS” (priority 2018, published 2026).

As a reminder, the Emax is the maximal effect, on the per cent scale that the assay sets.

Read-outs that look alike come from different tables or passages of the source.

Holding throughout (assay type): cell-based
Test [1] addresses T1, GLP-1R (Homo sapiens, UniProt P43220). Put plainly: HitHunter cAMP assay (GLP-1R). Conditions: cAMP; for Emax: read-out: (Emax) GLP-1R. Summed up: (§1)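 Duplicate 22-point, 2-fold agonist titrations applied to receptor-expressing suspension cells in IBMX-containing HBSS; 30 min RT stimulation. Read: luminescent cAMP immunocompetition after O/N dark incubation.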
A further test has as its target T2, GIP-R (Homo sapiens, UniProt P48546).
T2 sequence (P48546 22-466): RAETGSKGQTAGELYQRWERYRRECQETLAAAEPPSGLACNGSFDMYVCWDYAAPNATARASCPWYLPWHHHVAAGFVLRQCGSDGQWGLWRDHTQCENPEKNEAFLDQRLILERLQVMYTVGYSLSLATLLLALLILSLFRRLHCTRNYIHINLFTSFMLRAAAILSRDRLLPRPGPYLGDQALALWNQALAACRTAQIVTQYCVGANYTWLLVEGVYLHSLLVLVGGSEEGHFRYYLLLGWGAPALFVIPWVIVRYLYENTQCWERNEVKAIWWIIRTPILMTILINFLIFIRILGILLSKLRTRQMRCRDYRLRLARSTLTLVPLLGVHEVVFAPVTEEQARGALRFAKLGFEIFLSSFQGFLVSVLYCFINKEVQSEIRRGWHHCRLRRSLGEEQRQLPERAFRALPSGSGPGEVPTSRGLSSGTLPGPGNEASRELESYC
Put plainly: HitHunter cAMP assay (GIP-R). Conditions: cAMP; for Emax: read-out: (Emax) GIP-R; for Emax at 1 µM: read-out: (Emax) GIP-R at 1 μM, Table 3. Summed up:
as §1

Test [2] has as its target T1, GLP-1R. Nature of the test: PathHunter β-arrestin assay. Summed up:
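Following a 90 min agonist exposure at 37 °C in 0.2% BSA medium, β-arrestin coupling was detected by chemiluminescence after 3 h at room temperature.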

[3] abbreviates: Table 3, read-out: EC50 GLP-1R/nM.
[4] abbreviates: Table 3A, read-out: EC50 GLP-1R/nM.
[5] abbreviates: Table 3, read-out: EC50 GIP-R/nM.
[6] abbreviates: Table 3A, read-out: EC50 GIP-R/nM.
Setting [7] is: PathHunter β-arrestin assay, read-out: β-arrestin activity EC50.

T1 sequence (P43220 24-463): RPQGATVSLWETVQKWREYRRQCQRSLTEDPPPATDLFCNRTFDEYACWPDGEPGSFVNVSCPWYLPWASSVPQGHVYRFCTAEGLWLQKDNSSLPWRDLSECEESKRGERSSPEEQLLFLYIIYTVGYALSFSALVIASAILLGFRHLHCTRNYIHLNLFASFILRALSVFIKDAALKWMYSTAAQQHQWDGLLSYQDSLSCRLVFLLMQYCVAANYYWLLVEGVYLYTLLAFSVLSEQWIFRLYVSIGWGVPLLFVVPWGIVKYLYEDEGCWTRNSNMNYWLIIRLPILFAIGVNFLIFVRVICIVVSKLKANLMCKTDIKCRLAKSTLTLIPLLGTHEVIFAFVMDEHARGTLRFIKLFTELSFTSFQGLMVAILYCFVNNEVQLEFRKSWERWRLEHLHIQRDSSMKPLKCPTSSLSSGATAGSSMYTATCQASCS

As to `CC[C@H](C)[C@H](NC(=O)[C@H](CO)NC(=O)[C@H](Cc1ccc(O)cc1)NC(=O)[C@H](CC(=O)O)NC(=O)[C@H](CO)NC(=O)[C@@H](NC(=O)[C@H](Cc1ccccc1)NC(=O)[C@@H](NC(=O)CNC(=O)[C@H](CCC(=O)O)NC(=O)CSCC(=O)NCCCCN1C(=O)CSC1=O)[C@@H](C)O)[C@@H](C)O)C(=O)N[C@@H](Cc1ccc(O)cc1)C(=O)N[C@@H](CC(C)C)C(=O)N[C@@H](CC(=O)O)C(=O)N[C@@H](CCCCN)C(=O)N[C@@H](CCC(N)=O)C(=O)N[C@@H](C)C(=O)N[C@@H](C)C(=O)NC(C)(C)C(=O)N[C@@H](CCC(=O)O)C(=O)N[C@@H](Cc1ccccc1)C(=O)N[C@H](C(=O)N[C@@H](CC(N)=O)C(=O)N[C@@H](Cc1c[nH]c2ccccc12)C(=O)N[C@@H](CC(C)C)C(=O)N[C@@H](CC(C)C)C(=O)N[C@@H](C)C(=O)NCC(=O)NCC(=O)N1CCC[C@H]1C(=O)N[C@@H](CO)C(=O)N[C@@H](CO)C(=O)NCC(=O)N[C@@H](C)C(=O)N1CCC[C@H]1C(=O)N1CCC[C@H]1C(=O)N1CCC[C@H]1C(=O)N[C@@H](CO)C(=O)N[C@@H](CCCCN)C(N)=O)C(C)C` [Compound 184], the EC50 on GLP-1R [1] (EC50 GLP-1R/nM, Table 3) is 1 to 10 nM; on GLP-1R [1] (EC50 GLP-1R/nM, Table 3A), 1 to 10 nM; at GIP-R (EC50 GIP-R/nM, Table 3), 10 to 100 nM; on GIP-R (EC50 GIP-R/nM, Table 3A), 10 to 100 nM; on GLP-1R [2] it was over 1 µM. In addition, the Emax at GLP-1R [1] (Table 3) was 99%; at GLP-1R [1] (Table 3A), 99%; on GIP-R (Table 3), 43%; on GIP-R (Table 3A), 43%.

In the case of `CC[C@H](C)[C@H](NC(=O)[C@H](CO)NC(=O)[C@H](Cc1ccc(O)cc1)NC(=O)[C@H](CC(=O)O)NC(=O)[C@H](CO)NC(=O)[C@@H](NC(=O)[C@H](Cc1ccccc1)NC(=O)[C@@H](NC(=O)CNC(=O)[C@H](CCC(=O)O)NC(=O)CN1C(=O)CSC1=O)[C@@H](C)O)[C@@H](C)O)C(=O)N[C@@H](Cc1ccc(O)cc1)C(=O)N[C@@H](CC(C)C)C(=O)N[C@@H](CC(=O)O)C(=O)N[C@@H](CCCCN)C(=O)N[C@@H](CCC(N)=O)C(=O)N[C@@H](C)C(=O)N[C@@H](C)C(=O)NC(C)(C)C(=O)N[C@@H](CCC(=O)O)C(=O)N[C@@H](Cc1ccccc1)C(=O)N[C@H](C(=O)N[C@@H](CC(N)=O)C(=O)N[C@@H](Cc1c[nH]c2ccccc12)C(=O)N[C@@H](CC(C)C)C(=O)N[C@@H](CC(C)C)C(=O)N[C@@H](C)C(=O)NCC(=O)NCC(=O)N1CCC[C@H]1C(=O)N[C@@H](CO)C(=O)N[C@@H](CO)C(=O)NCC(=O)N[C@@H](C)C(=O)N1CCC[C@H]1C(=O)N1CCC[C@H]1C(=O)N1CCC[C@H]1C(=O)N[C@@H](CO)C(=O)N[C@@H](CCCCN)C(N)=O)C(C)C` [Compound 185], the Emax on GLP-1R [1] (Table 3) and at GLP-1R [1] (Table 3A) was 97% each time. For the same compound, the EC50 at GLP-1R [1] (setting [3]) is 0.1 to 1 nM; on GLP-1R [1] (setting [4]), 0.1 to 1 nM; at GIP-R (setting [5]) it was over 1000 nM; on GIP-R (setting [6]), over 1000 nM; at GLP-1R [2] (setting [7]), over 1 µM. The Emax at 1 µM at GIP-R was 8.6%.

As to `CC[C@H](C)[C@H](NC(=O)[C@H](CO)NC(=O)[C@H](Cc1ccc(O)cc1)NC(=O)[C@H](CC(=O)O)NC(=O)[C@H](CO)NC(=O)[C@@H](NC(=O)[C@H](Cc1ccccc1)NC(=O)[C@@H](NC(=O)CNC(=O)[C@H](CCC(=O)O)NC(=O)c1ccc(C(=O)NCCN2C(=O)CSC2=O)cc1)[C@@H](C)O)[C@@H](C)O)C(=O)N[C@@H](Cc1ccc(O)cc1)C(=O)N[C@@H](CC(C)C)C(=O)N[C@@H](CC(=O)O)C(=O)N[C@@H](CCCCN)C(=O)N[C@@H](CCC(N)=O)C(=O)N[C@@H](C)C(=O)N[C@@H](C)C(=O)NC(C)(C)C(=O)N[C@@H](CCC(=O)O)C(=O)N[C@@H](Cc1ccccc1)C(=O)N[C@H](C(=O)N[C@@H](CC(N)=O)C(=O)N[C@@H](Cc1c[nH]c2ccccc12)C(=O)N[C@@H](CC(C)C)C(=O)N[C@@H](CC(C)C)C(=O)N[C@@H](C)C(=O)NCC(=O)NCC(=O)N1CCC[C@H]1C(=O)N[C@@H](CO)C(=O)N[C@@H](CO)C(=O)NCC(=O)N[C@@H](C)C(=O)N1CCC[C@H]1C(=O)N1CCC[C@H]1C(=O)N1CCC[C@H]1C(=O)N[C@@H](CO)C(=O)N[C@@H](CCCCN)C(N)=O)C(C)C` [Compound 186], the Emax at GLP-1R [1] (Table 3) and on GLP-1R [1] (Table 3A) was 94% each time. In addition, the EC50 is 1 to 10 nM at GLP-1R [1] (setting [3]); 1 to 10 nM at GLP-1R [1] (setting [4]); over 1000 nM on GIP-R (setting [5]); over 1000 nM on GIP-R (setting [6]); over 1 µM at GLP-1R [2] (setting [7]). Also, the Emax at 1 µM on GIP-R worked out at 4%.

As to `CC[C@H](C)[C@H](NC(=O)[C@H](CO)NC(=O)[C@H](Cc1ccc(O)cc1)NC(=O)[C@H](CC(=O)O)NC(=O)[C@H](CO)NC(=O)[C@@H](NC(=O)[C@H](Cc1ccccc1)NC(=O)[C@@H](NC(=O)CNC(=O)[C@H](CCC(=O)O)NC(=O)CCC(=O)NCCN1C(=O)c2ccccc2C1=O)[C@@H](C)O)[C@@H](C)O)C(=O)N[C@@H](Cc1ccc(O)cc1)C(=O)N[C@@H](CC(C)C)C(=O)N[C@@H](CC(=O)O)C(=O)N[C@@H](CCCCN)C(=O)N[C@@H](CCC(N)=O)C(=O)N[C@@H](C)C(=O)N[C@@H](C)C(=O)NC(C)(C)C(=O)N[C@@H](CCC(=O)O)C(=O)N[C@@H](Cc1ccccc1)C(=O)N[C@H](C(=O)N[C@@H](CC(N)=O)C(=O)N[C@@H](Cc1c[nH]c2ccccc12)C(=O)N[C@@H](CC(C)C)C(=O)N[C@@H](CC(C)C)C(=O)N[C@@H](C)C(=O)NCC(=O)NCC(=O)N1CCC[C@H]1C(=O)N[C@@H](CO)C(=O)N[C@@H](CO)C(=O)NCC(=O)N[C@@H](C)C(=O)N1CCC[C@H]1C(=O)N1CCC[C@H]1C(=O)N1CCC[C@H]1C(=O)N[C@@H](CO)C(=O)N[C@@H](CCCCN)C(N)=O)C(C)C` [Compound 187], the EC50 is 10 to 100 nM on GLP-1R [1] (EC50 GLP-1R/nM, Table 3); 10 to 100 nM on GLP-1R [1] (EC50 GLP-1R/nM, Table 3A); 10 to 100 nM at GIP-R (EC50 GIP-R/nM, Table 3); 10 to 100 nM on GIP-R (EC50 GIP-R/nM, Table 3A); over 1 µM on GLP-1R [2]. In addition, the Emax stood at 89% at GLP-1R [1] (Table 3), 89% at GLP-1R [1] (Table 3A), 58% on GIP-R (Table 3) and 58% on GIP-R (Table 3A).

For `CC[C@H](C)[C@H](NC(=O)[C@H](CO)NC(=O)[C@H](Cc1ccc(O)cc1)NC(=O)[C@H](CC(=O)O)NC(=O)[C@H](CO)NC(=O)[C@@H](NC(=O)[C@H](Cc1ccccc1)NC(=O)[C@@H](NC(=O)CNC(=O)[C@H](CCC(=O)O)NC(=O)CCCC(=O)NCCN1C(=O)c2ccccc2C1=O)[C@@H](C)O)[C@@H](C)O)C(=O)N[C@@H](Cc1ccc(O)cc1)C(=O)N[C@@H](CC(C)C)C(=O)N[C@@H](CC(=O)O)C(=O)N[C@@H](CCCCN)C(=O)N[C@@H](CCC(N)=O)C(=O)N[C@@H](C)C(=O)N[C@@H](C)C(=O)NC(C)(C)C(=O)N[C@@H](CCC(=O)O)C(=O)N[C@@H](Cc1ccccc1)C(=O)N[C@H](C(=O)N[C@@H](CC(N)=O)C(=O)N[C@@H](Cc1c[nH]c2ccccc12)C(=O)N[C@@H](CC(C)C)C(=O)N[C@@H](CC(C)C)C(=O)N[C@@H](C)C(=O)NCC(=O)NCC(=O)N1CCC[C@H]1C(=O)N[C@@H](CO)C(=O)N[C@@H](CO)C(=O)NCC(=O)N[C@@H](C)C(=O)N1CCC[C@H]1C(=O)N1CCC[C@H]1C(=O)N1CCC[C@H]1C(=O)N[C@@H](CO)C(=O)N[C@@H](CCCCN)C(N)=O)C(C)C` [Compound 188], the EC50 was 10 to 100 nM at GLP-1R [1] (EC50 GLP-1R/nM, Table 3); 10 to 100 nM on GLP-1R [1] (EC50 GLP-1R/nM, Table 3A); 1 to 10 nM on GIP-R (EC50 GIP-R/nM, Table 3); 1 to 10 nM at GIP-R (EC50 GIP-R/nM, Table 3A); over 1 µM at GLP-1R [2]. The Emax on GLP-1R [1] (Table 3) stood at 101%; on GLP-1R [1] (Table 3A) it was 101%; on GIP-R (Table 3), 107%; at GIP-R (Table 3A), 107%.
